From patent publication US9018229B2, “Quinolone compound and pharmaceutical composition” (Otsuka Pharmaceutical Co., Ltd., priority 2008, dated 2015)
Structures can show the parent of a compound that is named as a salt.

Experiments:
[1] = tested on: human neuroblastoma cell lines SH-SY5Y treated with 1-methyl-4-phenylpyridinium (MPP+); test: Improvement of mitochondrial dysfunction in MPP+-treated SH-SY5Y cells (mitochondrial oxidation reduction activity, Alamar Blue); format: cell-based; settings: 1.5 mM MPP+, relative to cells in DMSO alone = 100%, read-out: Fluorescence Intensity (%); for activity at 0.01 µg/mL: test compound 0.01 μg/ml; for activity at 0.03 µg/mL: test compound 0.03 μg/ml; for activity at 0.1 µg/mL: test compound 0.1 μg/ml; for activity at 0.3 µg/mL: test compound 0.3 μg/ml; for activity at 1 µg/mL: test compound 1 μg/ml
Method: Evaluation of the Improvement of Mitochondrial Dysfunction Using Human Neuroblastoma Cell Lines SH-SY5Y Treated with 1-methyl-4-phenylpyridinium (MPP^+)
In human neuroblastoma cell lines SH-SY5Y in which mitochondrial activity was injured by MPP^+ treatment (Bollimuntha S. et al., J Biol Chem, 280, 2132-2140 (2005) and Shang T. et al., J Biol Chem, 280, 34644-34653 (2005)), the improvement of mitochondrial dysfunction was evaluated on the basis of measurement values for mitochondrial oxidation reduction activity using Alamar Blue fluorescent dye after the compound addition (Nakai M. et al, Exp Neurol, 179, 103-110 (2003)).
The human neuroblastoma cell lines SH-SY5Y were cultured in Dulbecco's Modified Eagle's Medium containing 10% fetal bovine serum (DMEM containing 50 units/ml penicillin and 50 μg/ml streptomycin as antibiotics) at 37° C. in the presence of 5% carbon dioxide. Cells were scattered on a poly-D-lysine-coated 96-well black plate at a concentration of 3−6×10^4 cells/cm^2 (medium amount: 100 μl/well), and cultured in the above medium for two days. Further, the medium was changed to DMEM containing a 1% N2 supplement (N2-DMEM) or to a medium (100 μl/well) in which 1.5 mM MPP^+ was dissolved. The cells were cultured therein for 39 to 48 hours, and then subjected to a mitochondrial oxidation reduction activity measurement system. A sample compound that had been previously dissolved in dimethyl sulfoxide (DMSO) was diluted with N2-DMEM, and added in a volume of 10 μl/well 24 hours before the activity measurement (final compound concentration: 0.01 to 1 μg/ml).
After removal of the medium by suction, a balanced salt solution containing 10% Alamar Blue (154 mM sodium chloride, 5.6 mM potassium chloride, 2.3 mM calcium chloride, 1.0 mM magnesium chloride, 3.6 mM sodium bicarbonate, 5 mM glucose, 5 mM HEPES, pH 7.2) was added in a volume of 100 μl/well, and reacted in an incubator at 37° C. for 1 hour. The fluorescent intensity was detected using a fluorescence detector (a product of Hamamatsu Photonics K.K., excitation wavelength 530 nm, measurement wavelength 580 nm) to thereby measure the mitochondrial oxidation reduction activity.
The fluorescent intensity of the well of the cells cultured in a medium containing MPP^+ and in each of the sample compounds was relatively evaluated based on the 100% fluorescent intensity of the well of the cells cultured in a medium containing DMSO alone (final concentration: 0.1%).

SMILES	melting point [°C]	activity at 0.01 µg/mL [1] [%]	activity at 0.03 µg/mL [1] [%]	activity at 0.1 µg/mL [1] [%]	activity at 0.3 µg/mL [1] [%]	activity at 1 µg/mL [1] [%]
CCCOc1cc2cnccc2c2c(=O)c(-c3ccc(OC)cc3)cn(CC(=O)NCCN3CCOCC3)c12 [Example 69, 2-[9-(4-methoxyphenyl)-10-oxo-6-propoxy-10H-[3,7]phenanthrolin-7-yl]-N-(2-morpholin-4-ylethyl)acetamide]	–	78	64	68	67	65
CCCOc1cc2ccccc2c2c(=O)c(-c3ccsc3)cn(C)c12 [Example 7, 4-methyl-5-propoxy-2-thiophen-3-yl-4H-benzo[f]quinolin-1-one]	–	66	71	78	80	75
COc1ccc(-c2c[nH]c3c(OCC(=O)NCCN4CCOCC4)ccc(F)c3c2=O)cc1 [Example 139, 2-[5-fluoro-3-(4-methoxyphenyl)-4-oxo-1,4-dihydro-quinolin-8-yloxy]-N-(2-morpholin-4-ylethyl)acetamide]	–	53	58	57	60	55
CCCOc1ccc(F)c2c(=O)c(-c3ccc(C(=O)N4CCC(N5CCOCC5)CC4)cc3)c[nH]c12 [Example 163, 5-fluoro-3-[4-(4-morpholin-4-yl-piperidine-1-carbonyl)phenyl]-8-propoxy-1H-quinolin-4-one]	–	61	61	63	60	63
CCCOc1cc2c(c3c(=O)c(-c4ccc(OC)cc4)c(C)[nH]c13)OCC2 [Example 48, 8-(4-methoxyphenyl)-7-methyl-5-propoxy-3,6-dihydro-2H-flo[2,3-f]quinolin-9-one]	–	60	81	92	93	80
CCCOc1ccc(F)c2c(=O)c(-c3ccc(OC)cc3)c(C(=O)NCCN3CCOCC3)[nH]c12 [Example 171, 5-fluoro-3-(4-methoxyphenyl)-4-oxo-8-propoxy-1,4-dihydroquinoline-2-carboxy-[2-(morpholin-4-yl)ethyl]amide]	–	61	61	65	67	68
CCCOc1cc2c(c3c(=O)c(-c4ccsc4)c[nH]c13)CCC2 [Example 12, 5-propoxy-8-thiophen-3-yl-1,2,3,6-tetrahydro-6-aza-cyclopenta[a]naphthalen-9-one]	–	80	74	83	82	68
CCCOc1ccc(F)c2c(=O)c(-c3ccc(OC)cc3)cn(COP(=O)(O)O)c12 [Example 212, [5-fluoro-3-(4-methoxyphenyl)-4-oxo-8-propoxy-4H-quinolin-1-ylmethyl]monophosphate disodium salt]	–	46	62	63	70	72
COc1ccc(-c2c[nH]c3c4c(cc(C)c3c2=O)CCO4)cc1 [Example 57, 7-(4-methoxyphenyl)-5-methyl-2,3-dihydro-9H-flo[3,2-h]quinolin-6-one]	–	64	65	68	74	65
CCCOc1ccc(F)c2c(=O)c(-c3cnn(C)c3)cn(COP(=O)(O)O)c12 [Example 222, [5-fluoro-3-(1-methyl-1H-pyrazol-4-yl)-4-oxo-8-propoxy-4H-quinolin-1-ylmethyl]monophosphate disodium salt]	–	59	64	66	62	73
CCCOc1cc2c(c3c(=O)c(-c4ccc(OC)cc4)cn(CC(=O)NCCN4CCOCC4)c13)OCCC2	201 to 203	–	–	–	–	–
CCCOc1cc2c(c3c(=O)c(-c4ccc(OC)cc4)cn(COP(=O)(O)O)c13)OCCC2 [Example 36, [3-(4-methoxyphenyl)-4-oxo-10-propoxy-7,8-dihydro-4H,6H-5-oxa-1-aza-phenanthren-1-ylmethyl]monophosphate disodium salt]	–	69	67	86	90	89

Continued, in another order:

melting point [°C]	SMILES	activity at 0.01 µg/mL [1] [%]	activity at 0.03 µg/mL [1] [%]	activity at 0.1 µg/mL [1] [%]	activity at 0.3 µg/mL [1] [%]	activity at 1 µg/mL [1] [%]
165 to 167	CCCOc1cc2ccccc2c2c(=O)c(-c3ccoc3)cn(C)c12	–	–	–	–	–
211 to 212	CCCOc1ccc(F)c2c(=O)c(-c3ccc(OC)cc3)c(CN3CCN(c4ccccn4)CC3)[nH]c12	–	–	–	–	–
135 to 137	CCCOc1cc2c(c3c(=O)c(-c4ccc(OC)cc4)cn(CCCN4CCOCC4)c13)CCC2	–	–	–	–	–
150 to 152	CCCOc1ccc(F)c2c(=O)c(-c3ccc(OC)cc3)cn(CCC(=O)OCCN3CCN(C)CC3)c12.Cl.Cl	–	–	–	–	–
205 to 207	CCCOc1ccc(F)c2c(=O)c(-c3ccc(OC)cc3)cn(COC(=O)c3ccc(OP(=O)([O-])[O-])cc3)c12.[Na+].[Na+]	–	–	–	–	–
72 to 74	CCCOc1ccc(F)c2c(=O)c(-c3ccc(OC)cc3)cn(CCS(=O)(=O)CCCN3CCN(C)CC3)c12.Cl.Cl	–	–	–	–	–
208 to 210	CCCOc1ccc(F)c2c(=O)c(-c3ccc(Cl)cc3Cl)cn(COP(=O)([O-])[O-])c12.[Na+].[Na+]	–	–	–	–	–
204 to 206	CCCOc1cc2ccccc2c2c(=O)c(-c3ccc(OC)cc3)c(C)[nH]c12	–	–	–	–	–
252 to 254	CCCOc1cc2ccccc2c2c(=O)c(-c3ccoc3)c[nH]c12	–	–	–	–	–
218 to 220	CCCOc1ccc(F)c2c(=O)c(-c3ccc(OC)cc3)cn(CC(=O)N(C)CCN3CCOCC3)c12	–	–	–	–	–
226 to 228	CCCOc1ccc(F)c2c(=O)c(-c3ccc(OC)cc3)cn(CC(=O)NC3CCNCC3)c12	–	–	–	–	–
206 to 208	CCCOc1ccc(F)c2c(=O)c(-c3ccc(OC)cc3)cn(CCN3CCOCC3)c12	–	–	–	–	–
172 to 174	CCCOc1cc2ccccc2c2c(=O)c(-c3ccc(OC)cc3)c[nH]c12	–	–	–	–	–
139 to 141	CCCOc1ccc(F)c2c(=O)c(-c3ccc(OC)cc3)cn(CC(=O)NCCN3CCOCC3)c12	–	–	–	–	–
